# Experimental data published in the supplement of paper PMC10307832.
# Columns and labels:
# Assay in all cases: relative viability (nuclei count vs DMSO), 5 days (fraction); higher = more cells survive
# EMC-BAC-2 = tested on: EMC-BAC-2
# In short: (§1)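 Lung cancer cell lines were pin-tool dosed in 1536-well plates on the day after seeding, with either a lone drug or a fixed anchor-drug dose plus five library-drug doses (not always all listed) in √10 steps. Nuclei were counted on 4× images after 5 days. Relative viability is the ratio of treated-well to vehicle-well nuclei counts, with each value a median of duplicate plates.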
# LCLC-97TM1 = tested on: LCLC-97TM1
# In short: as §1
# NCI-H1355 = tested on: NCI-H1355
# In short: as §1
# NCI-H1666 = tested on: NCI-H1666
# In short: as §1
# NCI-H1755 = tested on: NCI-H1755
# In short: as §1
# NCI-H1793 = tested on: NCI-H1793
# In short: as §1
# NCI-H1944 = tested on: NCI-H1944
# In short: as §1
# NCI-H1975 = tested on: NCI-H1975
# In short: as §1
# NCI-H1993 = tested on: NCI-H1993
# In short: as §1
# NCI-H2009 = tested on: NCI-H2009
# In short: as §1
# NCI-H2126 = tested on: NCI-H2126
# In short: as §1
# NCI-H2170 = tested on: NCI-H2170
# In short: as §1
# NCI-H2347 = tested on: NCI-H2347
# In short: as §1
# NCI-H441 = tested on: NCI-H441
# In short: as §1
# NCI-H460 = tested on: NCI-H460
# In short: as §1
# NCI-H520 = tested on: NCI-H520
# In short: as §1
# NCI-H647 = tested on: NCI-H647
# In short: as §1
# PC-14 = tested on: PC-14
# In short: as §1
# PC-3 [JPC-3] = tested on: PC-3 [JPC-3]
# In short: as §1
# SK-LU-1 = tested on: SK-LU-1
# In short: as §1
# SW 1573 = tested on: SW 1573
# In short: as §1
smiles,measurement,setting,value
O=C(O)CCCCC(CCSCc1ccccc1)SCc1ccccc1 (centres undefined) [CPI-613] + Nc1nc2[nH]cc(CCc3ccc(C(=O)N[C@@H](CCC(=O)O)C(=O)O)cc3)c2c(=O)[nH]1 [Pemetrexed] (partner 0.2 µM),relative viability,EMC-BAC-2; first compound 5 µM,0.435
same,relative viability,EMC-BAC-2; first compound 15.81 µM,0.409
same,relative viability,EMC-BAC-2; first compound 50 µM,0.456
same,relative viability,EMC-BAC-2; first compound 158.11 µM,0.461
same,relative viability,EMC-BAC-2; first compound 500 µM,0.349
same,relative viability,LCLC-97TM1; first compound 5 µM,0.166
same,relative viability,LCLC-97TM1; first compound 15.81 µM,0.208
same,relative viability,LCLC-97TM1; first compound 50 µM,0.176
same,relative viability,LCLC-97TM1; first compound 158.11 µM,0.162
same,relative viability,LCLC-97TM1; first compound 500 µM,0.0608
same,relative viability,NCI-H1355; first compound 5 µM,1.02
same,relative viability,NCI-H1355; first compound 15.81 µM,0.983
same,relative viability,NCI-H1355; first compound 50 µM,1.06
same,relative viability,NCI-H1355; first compound 158.11 µM,0.754
same,relative viability,NCI-H1355; first compound 500 µM,0.457
same,relative viability,NCI-H1666; first compound 5 µM,0.892
same,relative viability,NCI-H1666; first compound 15.81 µM,0.857
same,relative viability,NCI-H1666; first compound 50 µM,0.835
same,relative viability,NCI-H1666; first compound 158.11 µM,0.489
same,relative viability,NCI-H1666; first compound 500 µM,0.471
same,relative viability,NCI-H1755; first compound 5 µM,0.436
same,relative viability,NCI-H1755; first compound 15.81 µM,0.57
same,relative viability,NCI-H1755; first compound 50 µM,0.371
same,relative viability,NCI-H1755; first compound 158.11 µM,0.396
same,relative viability,NCI-H1755; first compound 500 µM,0.372
same,relative viability,NCI-H1793; first compound 5 µM,0.895
same,relative viability,NCI-H1793; first compound 15.81 µM,0.71
same,relative viability,NCI-H1793; first compound 50 µM,0.832
same,relative viability,NCI-H1793; first compound 158.11 µM,0.378
same,relative viability,NCI-H1793; first compound 500 µM,0.0257
same,relative viability,NCI-H1944; first compound 5 µM,0.647
same,relative viability,NCI-H1944; first compound 15.81 µM,0.575
same,relative viability,NCI-H1944; first compound 50 µM,0.577
same,relative viability,NCI-H1944; first compound 158.11 µM,0.339
same,relative viability,NCI-H1944; first compound 500 µM,0.408
same,relative viability,NCI-H1975; first compound 5 µM,0.267
same,relative viability,NCI-H1975; first compound 15.81 µM,0.293
same,relative viability,NCI-H1975; first compound 50 µM,0.286
same,relative viability,NCI-H1975; first compound 158.11 µM,0.142
same,relative viability,NCI-H1975; first compound 500 µM,0.0754
same,relative viability,NCI-H1993; first compound 5 µM,0.601
same,relative viability,NCI-H1993; first compound 15.81 µM,0.522
same,relative viability,NCI-H1993; first compound 50 µM,0.537
same,relative viability,NCI-H1993; first compound 158.11 µM,0.378
same,relative viability,NCI-H1993; first compound 500 µM,0.278
same,relative viability,NCI-H2009; first compound 5 µM,0.985
same,relative viability,NCI-H2009; first compound 15.81 µM,1
same,relative viability,NCI-H2009; first compound 50 µM,0.947
same,relative viability,NCI-H2009; first compound 158.11 µM,0.322
same,relative viability,NCI-H2009; first compound 500 µM,0.0262
same,relative viability,NCI-H2126; first compound 5 µM,0.65
same,relative viability,NCI-H2126; first compound 15.81 µM,0.632
same,relative viability,NCI-H2126; first compound 50 µM,0.636
same,relative viability,NCI-H2126; first compound 158.11 µM,0.385
same,relative viability,NCI-H2126; first compound 500 µM,0.219
same,relative viability,NCI-H2170; first compound 5 µM,0.278
same,relative viability,NCI-H2170; first compound 15.81 µM,0.251
same,relative viability,NCI-H2170; first compound 50 µM,0.244
same,relative viability,NCI-H2170; first compound 158.11 µM,0.26
same,relative viability,NCI-H2170; first compound 500 µM,0.227
same,relative viability,NCI-H2347; first compound 5 µM,0.413
same,relative viability,NCI-H2347; first compound 15.81 µM,0.434
same,relative viability,NCI-H2347; first compound 50 µM,0.405
same,relative viability,NCI-H2347; first compound 158.11 µM,0.383
same,relative viability,NCI-H2347; first compound 500 µM,0.419
same,relative viability,NCI-H441; first compound 5 µM,0.266
same,relative viability,NCI-H441; first compound 15.81 µM,0.242
same,relative viability,NCI-H441; first compound 50 µM,0.236
same,relative viability,NCI-H441; first compound 158.11 µM,0.151
same,relative viability,NCI-H441; first compound 500 µM,0.0045
same,relative viability,NCI-H460; first compound 5 µM,0.0641
same,relative viability,NCI-H460; first compound 15.81 µM,0.0607
same,relative viability,NCI-H460; first compound 50 µM,0.0741
same,relative viability,NCI-H460; first compound 158.11 µM,0.0795
same,relative viability,NCI-H460; first compound 500 µM,0.0168
same,relative viability,NCI-H520; first compound 5 µM,0.708
same,relative viability,NCI-H520; first compound 15.81 µM,0.627
same,relative viability,NCI-H520; first compound 50 µM,0.527
same,relative viability,NCI-H520; first compound 158.11 µM,0.232
same,relative viability,NCI-H520; first compound 500 µM,0.155
same,relative viability,NCI-H647; first compound 5 µM,0.157
same,relative viability,NCI-H647; first compound 15.81 µM,0.158
same,relative viability,NCI-H647; first compound 50 µM,0.113
same,relative viability,NCI-H647; first compound 158.11 µM,0.0906
same,relative viability,NCI-H647; first compound 500 µM,0.0167
same,relative viability,PC-14; first compound 5 µM,0.133
same,relative viability,PC-14; first compound 15.81 µM,0.13
same,relative viability,PC-14; first compound 50 µM,0.122
same,relative viability,PC-14; first compound 158.11 µM,0.121
same,relative viability,PC-14; first compound 500 µM,0.0065
same,relative viability,PC-3 [JPC-3]; first compound 5 µM,1.13
same,relative viability,PC-3 [JPC-3]; first compound 50 µM,1.11
same,relative viability,PC-3 [JPC-3]; first compound 158.11 µM,0.606
same,relative viability,PC-3 [JPC-3]; first compound 500 µM,0.362
same,relative viability,SK-LU-1; first compound 5 µM,0.958
same,relative viability,SK-LU-1; first compound 15.81 µM,0.88
same,relative viability,SK-LU-1; first compound 50 µM,0.87
same,relative viability,SK-LU-1; first compound 158.11 µM,0.22
same,relative viability,SK-LU-1; first compound 500 µM,0.0978
same,relative viability,SW 1573; first compound 5 µM,0.771
same,relative viability,SW 1573; first compound 15.81 µM,0.777
same,relative viability,SW 1573; first compound 50 µM,0.781
same,relative viability,SW 1573; first compound 158.11 µM,0.317
same,relative viability,SW 1573; first compound 500 µM,0.0621
